Data published in article PMC3297362 (Journal of Medicinal Chemistry, 2012).
pIC50: −log10 of the molar value.

Legend:
ovine COX-1 = target: T1, ovine COX-1 (Ovis aries, UniProt P05979); assay type: biochemical
T1 sequence (P05979 25-600): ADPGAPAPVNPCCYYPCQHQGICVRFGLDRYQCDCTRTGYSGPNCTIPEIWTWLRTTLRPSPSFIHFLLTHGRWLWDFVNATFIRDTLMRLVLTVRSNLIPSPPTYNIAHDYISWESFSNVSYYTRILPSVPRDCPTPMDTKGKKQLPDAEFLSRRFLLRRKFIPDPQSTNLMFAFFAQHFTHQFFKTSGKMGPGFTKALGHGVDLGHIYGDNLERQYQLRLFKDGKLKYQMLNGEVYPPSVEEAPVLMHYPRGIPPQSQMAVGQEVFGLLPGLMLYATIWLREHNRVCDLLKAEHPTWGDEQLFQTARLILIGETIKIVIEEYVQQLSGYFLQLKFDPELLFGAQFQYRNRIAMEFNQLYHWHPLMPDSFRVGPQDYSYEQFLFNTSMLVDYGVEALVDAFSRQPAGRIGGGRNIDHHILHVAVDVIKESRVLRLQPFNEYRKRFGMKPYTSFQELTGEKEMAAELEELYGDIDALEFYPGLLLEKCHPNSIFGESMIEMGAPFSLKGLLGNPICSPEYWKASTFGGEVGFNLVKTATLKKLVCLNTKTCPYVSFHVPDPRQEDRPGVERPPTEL

murine COX-2 = target: T2, murine COX-2 (Mus musculus, UniProt Q05769); experiment: biochemical; settings: COX-2 IC50, purified mCOX-2; 5 μM AA
T2 sequence (Q05769 18-604): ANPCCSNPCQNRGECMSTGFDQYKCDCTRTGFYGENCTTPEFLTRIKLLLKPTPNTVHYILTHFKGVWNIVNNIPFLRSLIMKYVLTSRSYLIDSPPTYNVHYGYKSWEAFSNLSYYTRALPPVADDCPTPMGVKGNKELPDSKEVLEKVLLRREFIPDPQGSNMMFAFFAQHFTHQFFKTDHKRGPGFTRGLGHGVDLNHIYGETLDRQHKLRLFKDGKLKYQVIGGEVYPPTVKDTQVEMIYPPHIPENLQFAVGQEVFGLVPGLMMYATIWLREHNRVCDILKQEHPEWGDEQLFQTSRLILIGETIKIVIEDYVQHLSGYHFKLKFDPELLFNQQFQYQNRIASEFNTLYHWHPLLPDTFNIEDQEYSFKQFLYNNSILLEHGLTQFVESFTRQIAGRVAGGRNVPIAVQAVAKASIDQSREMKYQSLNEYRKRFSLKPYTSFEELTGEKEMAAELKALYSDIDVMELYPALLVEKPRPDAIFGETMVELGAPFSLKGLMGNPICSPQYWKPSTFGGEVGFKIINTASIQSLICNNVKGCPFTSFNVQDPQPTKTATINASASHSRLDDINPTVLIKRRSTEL

[1] = target: T3, hCOX-2 in HNSCC 1483 cells (Homo sapiens, UniProt P35354); assay type: cell-based; settings: at 5 μM
T3 sequence (P35354 18-604): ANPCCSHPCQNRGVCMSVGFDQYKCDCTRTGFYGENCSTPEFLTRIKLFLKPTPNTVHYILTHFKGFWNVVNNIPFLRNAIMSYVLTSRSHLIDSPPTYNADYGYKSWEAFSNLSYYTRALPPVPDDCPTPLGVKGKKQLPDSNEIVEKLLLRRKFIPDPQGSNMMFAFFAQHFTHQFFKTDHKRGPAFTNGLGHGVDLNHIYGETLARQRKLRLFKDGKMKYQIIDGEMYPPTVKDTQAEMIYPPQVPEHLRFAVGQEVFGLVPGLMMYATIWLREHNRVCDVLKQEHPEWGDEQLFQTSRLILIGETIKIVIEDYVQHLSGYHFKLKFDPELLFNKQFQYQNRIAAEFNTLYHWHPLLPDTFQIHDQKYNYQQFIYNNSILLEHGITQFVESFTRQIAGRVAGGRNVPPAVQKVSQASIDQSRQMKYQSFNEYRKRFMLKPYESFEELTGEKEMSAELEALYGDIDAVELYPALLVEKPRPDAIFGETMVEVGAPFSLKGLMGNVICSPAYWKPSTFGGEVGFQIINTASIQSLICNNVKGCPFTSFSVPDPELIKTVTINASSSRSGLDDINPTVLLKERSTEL

[2] = test system: peroxisome proliferator-activated receptor (PPAR)γ; settings: cell culture; cited from earlier work

Row | SMILES | improvement in activity against COX-1 as compared with reference compound 2 (ovine COX-1) | pIC50 (murine COX-2) | inhibition of hCOX-2 in HNSCC 1483 cells (in words) [1] | activation of PPARγ (in words) [2]
1 | O=C(CC1=C/C(=C\c2ccc(-c3ccccc3)cc2)c2ccc(F)cc21)NS(=O)(=O)C(F)(F)F [compound 21c, (E)-2-(1-([1,1′-Biphenyl]-4-ylmethylene)-5-fluoro-1H-inden-3-yl)-N-((trifluoromethyl)sulfonyl)-acetamide] | more than 4 fold | 4.85 | – | –
2 | O=C(O)CC1=C/C(=C\c2ccc(-c3ccccc3)cc2)c2ccc(F)cc21 [compound 13a] | – | – | no inhibition | potent activator
3 | CSc1ccc(/C=C2\C=C(CC(=O)O)c3cc(F)ccc32)cc1 [compound 2, (E)-2-(5-fluoro-1-(4-(methylthio)benzylidene)-1H-inden-3-yl)acetic acid] | – | – | no inhibition | –
